Laboratory results as given in patent US20120190613A1, “ECHINOCANDIN DERIVATIVES” (priority 2009, published 2012).
In brackets after ≈: the same amount, converted by molar mass. Starred links: 1 amine or outer side, 2 acyl side, 3 side chain; linkers in the order of their positions; H or OH if unused. Positions of bridges follow the written chain, without caps; N, C: chain ends. Non-standard residues stand in square brackets, D forms with d. Residues, ends and D or L forms follow the SMILES beside them. *: point of attachment. Orn(4R-OH,5R-OH) = O=C([C@H](C[C@@H](O)[C@@H](O)N[*:3])N[*:1])[*:2]; Tetradecanoyl(10R,12S-Me2) = CC[C@H](C)C[C@H](C)CCCCCCCCC(=O)*; hTyr(3S-OH,4S-OH) = N[C@H](C(=O)O)[C@H](O)[C@@H](O)c1ccc(O)cc1; Gln(3R-OH) = NC(=O)C[C@@H](O)[C@H](N)C(=O)O; Pro(3S-OH) = O=C(O)[C@H]1NCC[C@@H]1O; Hyp = O=C(O)[C@@H]1C[C@@H](O)CN1

Legend:
Assay type in all cases: cell-based
[1] = tested on: A. flavus 626 ATCC 64025; test: MIC by broth microdilution against A. flavus; details: 48 hr, growth reduction of 50%
Protocol: (§1) MIC values (μg/mL) of echinocandin class compounds of the invention against various Candida and Aspergillus species were obtained as follows. Test organisms were obtained from the American Type Culture Collection (Manassas, Va.). The isolates were maintained at −80 ° C., then thawed and sub-cultured one day prior to testing (seven days for Aspergillus strains).
(§2) The mouse serum was heat-inactivated for 30 minutes at 56° C., and filtered through a 0.2 μm low protein binding filter unit prior to use.
(§3) MIC values were determined using broth microdilution. The wells of the daughter plates ultimately contained 180 μL of RPMI-1640 medium with and without mouse serum, 10 μL of drug solution, and 10 μL of yeast or fungal inoculum.
(§4) Prior to susceptibility testing, fungal isolates were removed from frozen storage, thawed at room temperature, and subcultured to Potato Dextrose Agar. The Candida strains were incubated overnight at 35° C. and the Aspergillus strains for 7 days at 25° C. Yeast colonies were inoculated into sterile saline and adjusted to the turbidity of a 0.5 McFarland standard. Inoculums from Aspergillus strains were prepared by washing the surface of an agar slant with 1 mL of sterile saline containing 0.05% of Tween 20. The resulting colloidial suspensions were adjusted to an optical density of 0.09 to 0.11 at λ 625 nm.
(§5) Both the yeast and filamentous fungus suspensions were further diluted 1:100 in RPMI-1640 medium and dispensed into sterile reservoirs and used to inoculate the daughter plates. 10 μL of standardized inoculum was delivered into each well. This yielded a final cell concentration in the daughter plates of approximately 2.5×10^3 colony-forming units/mL. Plates were incubated at 35° C. for approximately 48 hr.
(§6) Following incubation, microplates were viewed from the bottom using a plate viewer.

[2] = tested on: C. parapsilosis 630 ATCC 90018; test: MIC by broth microdilution against C. parapsilosis; details: 48 hr
Protocol: as §1, §2, §3, §4, §5, §6

[3] = tested on: C. albicans 104 ATCC 90028; test: MIC by broth microdilution against C. albicans; details: 48 hr
Protocol: as §1, §2, §3, §4, §5, §6

Row | SMILES | MIC ([1]; 0% mouse serum) [µg/mL] | MIC ([1]; 50% mouse serum) [µg/mL] | MIC ([2]; 0% mouse serum) [µg/mL] | MIC ([2]; 50% mouse serum) [µg/mL] | MIC ([3]; 0% mouse serum) [µg/mL] | MIC ([3]; 50% mouse serum) [µg/mL]
1 | CCC(C)CC(C)CCCCCCCCC(=O)NC1CC(O)C(OCCCCCCOCCOCCOCCOCCOCCOCCOCCOC)NC(=O)C2C(O)CCN2C(=O)C(C(O)CC(N)=O)NC(=O)C(C(O)C(O)c2ccc(O)cc2)NC(=O)C2CC(O)CN2C(=O)C(C(C)O)NC1=O (stereo not drawn) [Compound 10] | 4 (≈ 2.69 µM) | 16 (≈ 10.8 µM) | >16 | >16 | >16 | >16
2 | CC[C@H](C)C[C@H](C)CCCCCCCCC(=O)N[C@H]1C[C@@H](O)[C@@H](O)NC(=O)[C@@H]2[C@@H](O)CCN2C(=O)[C@H]([C@H](O)CC(N)=O)NC(=O)[C@H]([C@H](O)[C@@H](O)c2ccc(O)cc2)NC(=O)[C@@H]2C[C@@H](O)CN2C(=O)[C@H]([C@@H](C)O)NC1=O [Pneumocandin B0, pneumocandin B0, reference compound] ({Tetradecanoyl(10R,12S-Me2)}-[Orn(4R-OH,5R-OH)]T[Hyp][hTyr(3S-OH,4S-OH)][Gln(3R-OH)][Pro(3S-OH)]; lactam 1-C) | 1 (≈ 0.939 µM) | 0.25 (≈ 0.235 µM) | 8 (≈ 7.51 µM) | >16 | 0.25 (≈ 0.235 µM) | 4 (≈ 3.76 µM)
